The species named for data set [1] is Homo sapiens. The data set is described as follows: Inhibition of [3H]2-m-AzTax binding to P-gp in human SKVLB1 cell plasma membranes assessed as residual [3H]2-m-AzTax binding at 40 uM treated for 30 mins followed by UV irradiation measured after 10 mins by fluorographic method relative to control.
A short description of data set [2]: Resistance index, ratio of IC50 for human HEY/Ixab80 cells to IC50 for human HEY cells. It is filed as functional.
Data set [3] in a line: Resistance index, ratio of IC50 for vinblastine-resistant human SKVLB1 cells to IC50 for human SKOV3 cells. The class given is functional.
In data set [4] the target is Tubulin beta-4 chain (Gallus gallus) (UniProt P09652). The experiment in a line: Inhibition of [3H]2-m-AzTax binding to chicken erythrocyte beta-tubulin 4 at 20 uM treated for 30 mins followed by UV irradiation for 10 mins by fluorographic method relative to control.
The species entered for data set [5] is Homo sapiens. The data set is described as follows: Inhibition of [3H]2-m-AzTax binding to P-gp in human SKVLB1 cell plasma membranes at 40 uM treated for 30 mins followed by UV irradiation for 10 mins by fluorographic method relative to control.
Data set [6] is described as follows: Cytotoxicity against human Hey/Tx100 cells after 72 to 120 hrs by sulforhodamine B assay. The class given is functional, cell-based. On the technique in general: The SRB assay estimates cell density from bound dye.
Data set [7] can be described thus: Resistance index, ratio of IC50 for human HEY/Tx100 cells to IC50 for human HEY cells. It is filed as functional.
Data set [8] concerns SK-OV-3. The data set is described as follows: Cytotoxicity against human SKOV3 cells after 72 to 120 hrs by sulforhodamine B assay. It is filed as functional, cell-based.
A short description of data set [9]: Cytotoxicity against human Hey/EpoB8 cells after 72 to 120 hrs by sulforhodamine B assay. The class given is functional, cell-based.
Data set [10] in a line: Cytotoxicity against human Hey/Ixab80 cells after 72 to 120 hrs by sulforhodamine B assay. The class given is functional, cell-based.
For data set [11], the species on record is Bos taurus. The data set is described as follows: Inhibition of [3H]2-m-AzTax binding to bovine brain beta-tubulin at 20 uM treated for 30 mins followed by UV irradiation for 10 mins by fluorographic method relative to control.
Data set [12] can be described thus: Cytotoxicity against vinblastine-resistant human SKVLB1 cells after 72 to 120 hrs by sulforhodamine B assay. It is filed as functional, cell-based.
The nature of data set [13]: Resistance index, ratio of IC50 for human HEY/EpoB8 cells to IC50 for human HEY cells. The class given is functional.
The species named for data set [14] is Homo sapiens. The experiment in a line: Binding affinity to P-gp in human SKVLB1 cells assessed as increase in [3H]vinblastine accumulation at 40 uM after 1 hr by liquid scintillation counting method. It is filed as cell-based.
For data set [15], the system named is HEY. The data set is described as follows: Cytotoxicity against human HEY cells after 72 to 120 hrs by sulforhodamine B assay. It is filed as functional, cell-based.
Data set [16] in a line: Substrate activity at P-gp in human SKVLB1 cells assessed as inhibition of cell growth after 72 to 120 hrs by sulforhodamine B assay. The class given is cell-based.
A short description of data set [17]: Substrate activity at P-gp in human SKVLB1 cells assessed as inhibition of cell growth after 72 to 120 hrs in presence of verapamil by sulforhodamine B assay. It is filed as cell-based.
In data set [18] the test system is P-gp. The experiment in a line: Resistance index, ratio of IC50 for substrate activity at P-gp in human SKVLB1 cells assessed as inhibition of cell growth to IC50 for human SKOV3 cells. It is filed as toxicity, cell-based. The settings on record: SKVLB1 cells (P-gp) versus SKOV3 cells, read-out: Ratio IC50.
Data set [19] has as its system SK-OV-3. The data set is described as follows: Cytotoxicity against human SKOV3 cells after 72 to 120 hrs in presence of verapamil by sulforhodamine B assay. The class given is functional, cell-based.
The test system of data set [20] is P-gp. The data set is described as follows: Resistance index, ratio of IC50 for substrate activity at P-gp in human SKVLB1 cells assessed as inhibition of cell growth in presence of verapamil to IC50 for human SKOV3 cells in presence of verapamil. It is filed as toxicity, cell-based. The settings on record: SKVLB1 cells (P-gp) versus SKOV3 cells, with verapamil (concentration not stated), read-out: Ratio IC50.

Data set [21] can be described thus: Ratio of fold resistance for substrate activity at P-gp in human SKVLB1 cells relative to sensitive human SKOV3 cells in absence of verapamil to fold resistance for substrate activity at P-gp in human SKVLB1 cells relative to sensitive human SKOV3 cells in presence of verapamil. The class given is toxicity, cell-based.
The subject of data set [22] is SK-OV-3. The experiment in a line: Effect on [3H]vinblastine accumulation in human SKOV3 cells at 40 uM after 1 hr by liquid scintillation counting method. The class given is functional, cell-based.

Calls of active or inactive are those of the source. The rule behind the calls is not given here. Some results are limits rather than exact numbers.

This note sets out measurements from ChEMBL document CHEMBL4251679 (J Nat Prod, 2018).

In general, inhibition refers to the drop in the measured response relative to a control, in per cent. In general, IC50 refers to the concentration that gives 50% inhibition.

Chain of Tubulin beta-4 chain (Gallus gallus) (P09652 whole entry): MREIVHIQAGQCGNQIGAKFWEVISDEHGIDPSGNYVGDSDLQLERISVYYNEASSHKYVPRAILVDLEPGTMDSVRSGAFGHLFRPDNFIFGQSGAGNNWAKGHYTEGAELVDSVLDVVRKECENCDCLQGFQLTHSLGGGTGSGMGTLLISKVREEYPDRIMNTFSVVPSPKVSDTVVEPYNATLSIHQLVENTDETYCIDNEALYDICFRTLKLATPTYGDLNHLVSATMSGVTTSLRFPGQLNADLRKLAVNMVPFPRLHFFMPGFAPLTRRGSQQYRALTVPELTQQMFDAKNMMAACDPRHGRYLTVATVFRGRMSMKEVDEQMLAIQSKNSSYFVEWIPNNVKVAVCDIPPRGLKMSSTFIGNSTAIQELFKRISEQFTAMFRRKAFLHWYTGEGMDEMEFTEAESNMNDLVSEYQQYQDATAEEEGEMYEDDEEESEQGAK

As for `CC(=O)O[C@H]1C(=O)[C@@]2(C)[C@H]([C@H](OC(=O)c3cccc(N=[N+]=[N-])c3)[C@]3(O)C[C@H](OC(=O)[C@H](O)[C@@H](NC(=O)c4ccccc4)c4ccccc4)C(C)=C1C3(C)C)[C@]1(OC(C)=O)CO[C@@H]1C[C@@H]2O`, the Activity in data set [1] came to 16%.

Regarding `CC(=O)O[C@@]12CO[C@@H]1C[C@H](O)[C@@]1(C)C(=O)[C@H](O)C3=C(C)[C@@H](OC(=O)[C@H](O)[C@@H](NC(=O)OC(C)(C)C)c4ccccc4)C[C@@](O)([C@@H](OC(=O)c4ccccc4)[C@H]21)C3(C)C` [DOCETAXEL ANHYDROUS], the “Ratio IC50” value in [2] was 19; in [3], 4704; in data set [7] it was 48; in [13], 10. Moreover, the Activity in data set [1] was determined as 45%. The figures for the inhibition in data set [4], in data set [5] and in data set [11] were 98%, 55% and 33%, respectively. In addition, the IC50 in [6] turned out to be 41.4 µM; in data set [8], 0.00075 µM; in data set [9], 8.4 µM; in data set [10], 16.2 µM; in data set [12], 3.53 µM; in data set [15], 0.86 µM. In addition, the outcome in [14] was Active.

Take `CC(=O)O[C@H]1C(=O)[C@@]2(C)[C@H]([C@H](OC(=O)c3ccccc3)[C@]3(O)C[C@H](OC(=O)[C@H](O)[C@@H](NC(=O)c4ccccc4)c4ccccc4)C(C)=C1C3(C)C)[C@]1(OC(C)=O)CO[C@@H]1C[C@@H]2O` [PACLITAXEL]: the “Ratio IC50” value in data set [2] worked out at 56; in data set [3], 5416; in data set [7] it was 89; in data set [13] it was 8. Besides, the IC50 in data set [16] was 21.2 µM; in data set [17], 3.73 µM; in data set [6], 240 µM; in data set [8] it was 0.00239 to 0.00385 µM; in data set [9], 22.2 µM; in data set [19], 0.00399 µM. Further, the IC50 in [10] came out at 152 µM; in data set [12], 12.6 µM; in [15], 2.7 µM. Also, in data set [1], the Activity worked out at 18%. Besides, the inhibition in data set [4] amounted to 98%; in data set [11], 9%. The inhibition entry in [5] was “Active”. In addition, the selectivity ratio in data set [18] worked out at 5520; in [20], 936. The result in data set [14] was Active. Besides, in data set [21], the Ratio is 5.9.

Regarding `CC(=O)O[C@@]12CO[C@@H]1C[C@H](O)[C@@]1(C)C(=O)[C@H](OC(=O)C3CC3)C3=C(C)[C@@H](OC(=O)[C@H](O)[C@H](C=C(C)C)NC(=O)OC(C)(C)C)C[C@@](O)([C@@H](OC(=O)c4ccccc4)[C@H]21)C3(C)C`, the IC50 in [16] is 0.182 µM; in data set [17], 0.0465 µM; in data set [6], 2.3 µM; in data set [8], 0.00062 to 0.00146 µM; in data set [9], 8 µM; in [19] it was 0.00144 µM. The IC50 in data set [10] amounted to 1.6 µM; in [12], 0.0756 µM; in data set [15] it was 0.58 µM. In addition, the Activity in data set [1] came out at 11%. Further, the inhibition in data set [4] is 30%; in data set [5], 89%; in data set [11], 38%. The result in data set [22] was inactive. Further, the outcome in data set [14] was Active.

For `CC(=O)O[C@@]1(C2/C(C)=C(/O)C(=O)C3=C(C)[C@@H](OC(=O)[C@H](O)[C@H](C=C(C)C)NC(=O)OC(C)(C)C)C[C@@](O)([C@H]2OC(=O)c2cccc(Cl)c2)C3(C)C)CO[C@H]1CCO` (stereo partly drawn), the “Ratio IC50” value in data set [2] is recorded as 16; in [3], 1376; in data set [7] it was 35; in [13], 17. Besides, the Activity in data set [1] worked out at 14%. In addition, the results for the inhibition in [4], in [5] and in data set [11] were 6%, above 80% and 32%, respectively. The IC50 in data set [6] turned out to be 28.8 µM; in data set [8], 0.00115 µM; in data set [9], 13.9 µM; in data set [10], 13 µM; in data set [12] it was 1.58 µM; in data set [15], 0.82 µM. Besides, in [22], the result was inactive. Further, the outcome in data set [14] was Active.
